The values that follow come from US8034827B2, “Phenanthridine derivatives as bradykinin antagonists” (Richter Gegeon Nyrt., priority 2005, dated 2011).

Assay [1] concerns the target T1, recombinant human B1 receptors (Homo sapiens, UniProt P46663).
T1 construct: host or cells: CHO (CHO-B1)
T1 sequence (P46663 1-353): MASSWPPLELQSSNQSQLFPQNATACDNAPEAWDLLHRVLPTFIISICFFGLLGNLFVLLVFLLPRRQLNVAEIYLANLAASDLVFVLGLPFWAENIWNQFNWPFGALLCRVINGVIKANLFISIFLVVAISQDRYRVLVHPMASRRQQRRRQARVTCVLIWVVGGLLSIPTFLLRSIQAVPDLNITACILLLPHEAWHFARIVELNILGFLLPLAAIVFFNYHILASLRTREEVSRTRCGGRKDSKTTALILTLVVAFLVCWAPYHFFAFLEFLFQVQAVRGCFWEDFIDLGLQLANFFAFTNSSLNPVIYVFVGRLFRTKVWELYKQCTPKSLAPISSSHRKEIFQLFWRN
The assay can be described thus: Antagonist potency by measurement of cytosolic calcium ion concentration in CHO-B1 cells (agonist LysDABK). Particulars: inhibition of LysDABK (EC80)-evoked [Ca2+]i elevation, fluo-4, read-out: B1 func. Type of assay: cell-based. The procedure: Assessment of Antagonist Potency at B1 and B2 Receptors In Vitro by Measurement of Cytosolic Calcium Ion Concentration with a Plate Reader Fluorimeter in Cells Expressing Recombinant Human B1 or B2 Receptors
Chinese hamster ovary (CHO) cells stably expressing recombinant human B1 (CHO-B1, Euroscreen) or B2 (CHO-B2, Perkin-Elmer) receptors were cultured in Dulbecco's Modified Eagle's Medium (DMEM) containing 10% Fetal Calf Serum (FCS), 100 U/ml penicillin, 0.1 mg/ml streptomycin, 0.25 μg/ml amphotericin B, 1% Minimum Essential Medium Eagle (MEM), non essential amino acid solution, 600 μg/ml G418, 1% pyruvate (for the B2 cell line). Cells were kept at 37° C. in a humidified incubator in an atmosphere of 5% CO2/95% air and were passaged 1:4 three times a week. Cells were plated at 1.5-2.5×10^4 cell/well on standard 96-well microplates, measurements of cytosolic calcium ion concentration ([Ca^2+]i) were carried out 1-2 days after cell plating.
Measurements of [Ca^2+]i were carried out on CHO-B1 and CHO-B2 cells stably expressing human B1 and B2 receptors, respectively. Cells were grown in standard 96-well microplates and before the measurement were loaded with a fluorescent Ca^2+-sensitive dye, fluo-4/AM (2 μM): after removing the culture medium the dye was added to the cells (dissolved in assay buffer: 145 mM NaCl, 5 mM KCl, 2 mM MgCl2, 2 mM CaCl2, 10 mM HEPES, 20 mM D-glucose, 2 mM probenecid, 100 μl/well) and cells were incubated at 37° C. in a humidified incubator in an atmosphere of 5% CO2/95% air for 40-120 min. To stop dye loading cells were washed twice with assay buffer. After washing, various concentrations of the test compounds (diluted in extracellular medium from a DMSO stock solution, final DMSO concentration was <0.1%) or buffer were added to each well depending on the experimental setup. After incubation at 37° C. for 20-25 min. baseline and agonist-evoked changes of [Ca^2+]i were measured column by column with a plate reader fluorimeter (Fluoroskan Ascent, Labsystems). Excitation and detection of emission was carried out from the bottom of the plate. Filters used for Fluo-4: excitation filter −485 nm, emission filter −538 nm. The whole measurement process was performed at 37° C. and was controlled by custom software. Inhibitory potency of the test compounds was assessed by measuring the reduction in the agonist-evoked [Ca^2+]i-elevation in the presence of different concentrations of the compounds. The agonists were LysDABK for CHO-B1, and bradykinin for CHO-B2 cells. Agonists were applied at an EC80 concentration, the EC80-values were derived from daily determined dose-response curves. Fluorescence data were expressed as ΔF/F (fluorescence change normalized to baseline). All treatments on a single plate were measured in multiple wells. Data from all wells with the same treatment were averaged and the average values were used for analysis. Inhibitory potency of a compound at a single concentration point was expressed as percent inhibition of the control agonist response. Sigmoidal concentration-inhibition curves were fitted to the data (derived from at least three independent experiments) and IC50-values were determined as the concentration that produces half of the maximal inhibition caused by the compound.

In assay [2] the target is T2, human recombinant bradykinin1 receptors (Homo sapiens, UniProt P46663).
T2 construct: host or cells: CHO cells
T2 sequence (P46663 1-353): T1 sequence (P46663 1-353)
Description: Human recombinant bradykinin B1 receptor binding. Conditions: CHO cell membranes, [3H]-[Des-Arg10] Kallidin radioligand. The procedure:
Receptor Binding Assays 1. Human Recombinant Bradykinin B1 Receptor Binding
Binding assays were carried out on human recombinant bradykinin1 receptors (expressed in CHO cells) according to the Euroscreen Technical Data Sheet (Cat. No.: ES-091). 20 μg protein/tube was incubated with [3,4-prolyl-3,4-^3H(N)]-[Des-Arg^10] Kallidin as radioligand. Non specific binding was determined in the presence of 10 μM Lys-des-Arg^9-Bradykinin. The final incubation volume was 250 μl. Samples were incubated for 15 min. at 25° C. then were rapidly vacuum filtered through GF/B filters presoaked for at least 1 h in 0.5% PEI. Radioactivity was determined by liquid scintillation spectroscopy.

Structures can show the parent of a compound that is named as a salt.

As for `O=C(CC1c2ccccc2-c2ccccc2N1S(=O)(=O)c1ccc(Cl)c(Cl)c1)N[C@H]1CC[C@H](CCN2CCCC2)CC1` (stereo partly drawn) [Example 4, trans-2-[5-(3,4-Dichloro-benzenesulfonyl)-5,6-dihydro-phenanthridin-6-yl]-N-[4-(2-pyrrolidin-1-yl-ethyl)-cyclohexyl]-acetamide], in assay [1], the IC50 was below 100 nM. In addition, the Ki – broadly, the dissociation constant of the complex between target and ligand, obtained from inhibition or displacement – in assay [2] was below 100 nM.
As to `O=C(CC1c2cc(F)cc(F)c2-c2ccccc2N1S(=O)(=O)c1ccc(Cl)c(Cl)c1)NCCc1ccc(C2=NCCN2)cc1` (stereo not drawn) [Example 18, 2-[5-(3,4-Dichloro-benzenesulfonyl)-8,10-difluoro-5,6-dihydro-phenanthridin-6-yl]-N-{2-[4-(4,5-dihydro-1H-imidazol-2-yl)-phenyl]-ethyl}-acetamide hydrochloride], the IC50 in assay [1] is below 100 nM. The Ki in assay [2] was below 100 nM.
`COc1ccc(S(=O)(=O)N2c3ccccc3-c3ccccc3C2CC(=O)NCCc2ccc(C3=NCCN3)cc2)cc1` (stereo not drawn) [Example 16, N-{2-[4-(4,5-Dihydro-1H-imidazol-2-yl)-phenyl]-ethyl}-2-[5-(4-methoxy-benzenesulfonyl)-5,6-dihydro-phenanthridin-6-yl]-acetamide hydrochloride]: in assay [1], the IC50 is below 100 nM. Besides, the Ki in assay [2] was below 100 nM.
For `COc1cccc2c1-c1ccccc1N(S(=O)(=O)c1ccc(Cl)c(Cl)c1)C2CC(=O)NCCc1ccc(C2=NCCN2)cc1` (stereo not drawn) [Example 17, 2-[5-(3,4-Dichloro-benzenesulfonyl)-10-methoxy-5,6-dihydro-phenanthridin-6-yl]-N-{2-[4-(4,5-dihydro-1H-imidazol-2-yl)-phenyl]-ethyl}-acetamide hydrochloride], the IC50 in assay [1] was below 100 nM. The Ki in assay [2] is below 100 nM.
Regarding `CC(=O)c1ccc2c(c1)C(CC(=O)NCCc1ccc(C3=NCCN3)cc1)N(S(=O)(=O)c1ccc(Cl)c(Cl)c1)c1ccccc1-2` (stereo not drawn) [Example 19, 2-[8-Acetyl-5-(3,4-dichloro-benzenesulfonyl)-5,6-dihydro-phenanthridin-6-yl]-N-{2-[4-(4,5-dihydro-1H-imidazol-2-yl)-phenyl]-ethyl}-acetamide hydrochloride], the IC50 in assay [1] was 100 to 500 nM. In addition, the Ki in assay [2] is below 100 nM.
The matching figures for `O=C(CC1c2ccccc2-c2ccccc2N1S(=O)(=O)c1ccc(Cl)c(Cl)c1)N1CCC(Cc2ccc(C3=NCCCN3)cc2)CC1` (stereo not drawn) [Example 6, 2-[5-(3,4-Dichloro-benzenesulfonyl)-5,6-dihydro-phenanthridin-6-yl]-1-{4-[4-(1,4,5,6-tetrahydro-pyrimidin-2-yl)-benzyl]-piperidin-1-yl}-ethanone]: below 100 nM and below 100 nM.
For `O=C(CC1c2ccccc2-c2ccccc2N1S(=O)(=O)c1ccc(Cl)c(Cl)c1)NCCc1ccc(C2=NCCN2)cc1` (stereo not drawn) [Example 2, 2-[5-(3,4-Dichloro-benzenesulfonyl)-5,6-dihydro-phenanthridin-6-yl]-N-{2-[4-(4,5-dihydro-1H-imidazol-2-yl)-phenyl]-ethyl}-acetamide hydrochloride], in that order: below 100 nM and below 100 nM.
The matching figures for `NCc1ccc(CC(NC(=O)CC(NS(=O)(=O)c2ccc3ccccc3c2)c2ccccc2)C(=O)N2CCCC2)cc1` (racemic) [Example 70003770, (±)-N-[1-(4-aminomethyl-benzyl)-2-oxo-2-pyrrolidin-1-yl-ethyl]-3-(naphthalene-2-sulfonylamino)-3-phenyl-propionamide, reference compound]: above 500 nM and above 500 nM.
Turning to `CC(C)N1CCN(C(=O)C2CCN(S(=O)(=O)c3ccc(NCC(c4ccccc4)c4ccccc4)c(C(=O)N4CCOCC4)c3)CC2)CC1` [Example 70002460, 4-{2-[(2,2-diphenyl-ethyl)-amino]-5-{[4-/(4-<1-methyl-ethyl>-1-piperazinyl)-carbonyl/-1-piperidinyl]-sulfonyl}-benzoyl}-morpholine, reference compound], the IC50 in assay [1] lay in the range of 100 to 500 nM. Moreover, in assay [2], the Ki is below 100 nM.
